Test results reported in US11304957B2, “Substituted quinazolines for inhibiting kinase activity” (NeuPharma, Inc., priority 2013, dated 2022).

Experiments:
H1975 cells = experiment: Inhibition of cancer cell growth, MTT assay, H1975; settings: read-out: IC50 H1975, 72 h, EGFR L858R/T790M
Method: Inhibition of cell growth by compounds was measured using MTT assay (Mosmann, T., Journal of Immunological Methods, 1983, 65, 55-63). Tumor cell lines were purchased from ATCC (American Type Culture Collection, Manassas, Va.). All cell lines were maintained in RPMI 1640 (Hyclone) supplemented with 10% fetal bovine serum (FBS, Hyclone), glutamine (2 mM, Hyclone), and antibiotics (penicillin 100 U/mL and streptomycin 50 μg/mL) at 37° C. in a humidified atmosphere of 5% CO2 in air. Taxol (as a positive control, Sigma) and compounds were dissolved in DMSO (Sigma), and the final concentration of DMSO in the medium was 1%. Tumor cells were plated in 96-well plates at densities of about 4000 cells/well of a 96-well plate and allowed to adhere/grow for 24 h. They were then treated with various concentrations of drug for 72 h. […] The number of cells remaining after 72 h was compared to the number of viable cells at the time of compound addition by measuring the absorbance at 570 nm, allowing for the calculation of growth inhibition.
All concentrations of compounds were tested in triplicate and controls were averaged over 4 wells. IC50 was calculated by plotting the concentration of compound vs the percentage of inhibition in treated wells using GraphPad Prism 5. […]

EGFR (ErbB1) T790M L858R = EGFR (ErbB1) T790M L858R (Homo sapiens (Human), UniProt P00533, L858R/T790M); experiment: Z'-LYTE kinase inhibition assay, EGFR L858R/T790M; type: biochemical; settings: for inhibition at 0.0137 µM: read-out: % inhibition EGFR L858R/T790M (Compound at 0.0137 μM)
EGFR (ErbB1) T790M L858R, sequence (P00533 25-1210 T790M/L858R): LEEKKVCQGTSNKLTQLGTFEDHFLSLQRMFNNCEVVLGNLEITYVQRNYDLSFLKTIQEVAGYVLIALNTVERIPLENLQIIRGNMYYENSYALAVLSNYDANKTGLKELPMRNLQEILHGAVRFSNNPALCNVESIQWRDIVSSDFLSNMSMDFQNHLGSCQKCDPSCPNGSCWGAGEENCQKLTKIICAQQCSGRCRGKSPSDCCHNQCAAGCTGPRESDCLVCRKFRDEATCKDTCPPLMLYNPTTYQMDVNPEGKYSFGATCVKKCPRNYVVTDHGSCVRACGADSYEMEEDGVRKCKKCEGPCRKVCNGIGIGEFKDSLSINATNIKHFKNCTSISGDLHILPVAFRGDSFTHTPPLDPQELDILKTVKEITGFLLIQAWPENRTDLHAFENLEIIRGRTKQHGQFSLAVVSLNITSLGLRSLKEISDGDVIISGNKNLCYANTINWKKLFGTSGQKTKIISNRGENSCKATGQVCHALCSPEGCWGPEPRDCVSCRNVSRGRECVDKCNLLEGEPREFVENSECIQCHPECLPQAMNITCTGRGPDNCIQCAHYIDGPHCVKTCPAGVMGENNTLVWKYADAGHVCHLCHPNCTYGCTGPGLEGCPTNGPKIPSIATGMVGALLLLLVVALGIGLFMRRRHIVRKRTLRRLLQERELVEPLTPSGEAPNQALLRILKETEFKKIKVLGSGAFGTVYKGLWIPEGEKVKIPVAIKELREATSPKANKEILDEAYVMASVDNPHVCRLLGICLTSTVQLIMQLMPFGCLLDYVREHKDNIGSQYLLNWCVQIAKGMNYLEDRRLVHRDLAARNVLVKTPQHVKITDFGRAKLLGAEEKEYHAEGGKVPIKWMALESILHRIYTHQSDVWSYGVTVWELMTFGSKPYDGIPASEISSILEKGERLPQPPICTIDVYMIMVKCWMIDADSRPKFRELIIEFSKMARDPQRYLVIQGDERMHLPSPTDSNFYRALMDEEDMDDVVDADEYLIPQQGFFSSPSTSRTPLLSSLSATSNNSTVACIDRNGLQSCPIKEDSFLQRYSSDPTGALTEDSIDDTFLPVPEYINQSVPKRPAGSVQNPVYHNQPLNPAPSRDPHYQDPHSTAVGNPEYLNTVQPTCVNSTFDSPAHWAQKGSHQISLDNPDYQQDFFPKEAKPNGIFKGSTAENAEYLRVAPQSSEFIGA
Method: Inhibitory activities of compounds against BTK, EGFR and EGFR mutants (EGFR L858R, EGFR T790M, EGFR L858R/T790M), FGFR1, FGFR2, JAK2, JAK3 and KDR were measured by Invitrogen using Z'-LYTE® Method as briefly described in the following. Test Compounds are screened in 1% DMSO (final) in the well. For 10 point titrations, 3-fold serial dilutions are conducted from the starting concentration. All ATP Solutions are diluted to a 4× working concentration in Kinase Buffer (50 mM HEPES pH 7.5, 0.01% BRIJ-35, 10 mM MgCl2, 1 mM EGTA). Peptide/Kinase Mixtures are diluted to a 2× working concentration in the appropriate Kinase Buffers as described below. (iv) Peptide/Kinase Mixtures for Measurement of EGFR (ErbB1) T790M L858R: The 2×EGFR (ErbB1) […] mixture is prepared in 50 mM HEPES pH 6.5, 0.01% BRIJ-35, 10 mM MgCl2, 1 mM EGTA, 0.02% NaN3. […] After the 1 hour Kinase Reaction incubation, 5 μL of a 1:64 dilution of Development Reagent B is added. Reaction starts by 30-second shaking of mixture consisting of 2.5 μL 4× test compound, 5 μL 2× kinase reaction mixture and 2.5 μL 4×ATP Solution on Bar-coded Corning, low volume NBS, black 384-well plate (Corning Cat. #3676). Then the mixture is incubated for 60-minute at room temperature for the kinase reaction, followed by addition of 5 μL of a 1:1024 dilution of development reagent A and 30-second plate shake. The mixture is then incubated for another 60-minute at room temperature for development reaction. Finally fluorescence is read by plate reader. To determine IC50 of a compound against EGFR, EGFR mutant and other kinases, a series of concentrations of the compound were tested for the inhibition.

EGFR (ErbB1) = EGFR (ErbB1) (Homo sapiens (Human), UniProt P00533); experiment: Z'-LYTE kinase inhibition assay, EGFR (ErbB1); type: biochemical
EGFR (ErbB1), sequence (P00533 25-1210): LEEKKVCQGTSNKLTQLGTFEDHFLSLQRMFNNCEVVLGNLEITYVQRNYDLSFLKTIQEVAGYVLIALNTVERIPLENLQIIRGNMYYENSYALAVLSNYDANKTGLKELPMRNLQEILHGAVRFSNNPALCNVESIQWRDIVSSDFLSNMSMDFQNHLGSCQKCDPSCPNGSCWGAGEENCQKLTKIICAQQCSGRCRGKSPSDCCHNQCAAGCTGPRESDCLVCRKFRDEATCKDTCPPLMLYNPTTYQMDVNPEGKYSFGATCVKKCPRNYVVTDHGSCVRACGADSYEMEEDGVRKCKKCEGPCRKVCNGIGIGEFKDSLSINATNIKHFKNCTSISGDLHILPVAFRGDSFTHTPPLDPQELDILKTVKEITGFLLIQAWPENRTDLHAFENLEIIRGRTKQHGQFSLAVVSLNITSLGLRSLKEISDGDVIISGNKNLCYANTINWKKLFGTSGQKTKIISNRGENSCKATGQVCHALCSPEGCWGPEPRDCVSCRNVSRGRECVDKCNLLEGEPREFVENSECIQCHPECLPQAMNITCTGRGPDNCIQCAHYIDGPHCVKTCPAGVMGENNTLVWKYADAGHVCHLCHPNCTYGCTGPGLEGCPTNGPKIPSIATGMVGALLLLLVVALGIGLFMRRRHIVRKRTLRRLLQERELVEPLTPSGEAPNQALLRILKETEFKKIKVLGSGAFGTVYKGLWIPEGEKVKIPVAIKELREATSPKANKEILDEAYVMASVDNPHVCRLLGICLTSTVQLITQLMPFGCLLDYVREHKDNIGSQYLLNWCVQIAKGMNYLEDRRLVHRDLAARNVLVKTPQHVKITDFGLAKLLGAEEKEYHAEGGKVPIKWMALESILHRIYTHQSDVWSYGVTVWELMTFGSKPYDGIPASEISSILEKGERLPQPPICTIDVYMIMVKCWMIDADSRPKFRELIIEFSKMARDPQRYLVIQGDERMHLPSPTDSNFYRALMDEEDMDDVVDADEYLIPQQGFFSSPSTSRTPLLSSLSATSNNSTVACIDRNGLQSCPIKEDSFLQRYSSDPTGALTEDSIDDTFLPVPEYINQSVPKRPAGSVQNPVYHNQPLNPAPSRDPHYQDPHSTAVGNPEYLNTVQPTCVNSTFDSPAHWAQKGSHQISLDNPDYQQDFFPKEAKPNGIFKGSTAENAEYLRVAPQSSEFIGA
Method: Inhibitory activities of compounds against BTK, EGFR and EGFR mutants (EGFR L858R, EGFR T790M, EGFR L858R/T790M), FGFR1, FGFR2, JAK2, JAK3 and KDR were measured by Invitrogen using Z'-LYTE® Method as briefly described in the following. Test Compounds are screened in 1% DMSO (final) in the well. For 10 point titrations, 3-fold serial dilutions are conducted from the starting concentration. All ATP Solutions are diluted to a 4× working concentration in Kinase Buffer (50 mM HEPES pH 7.5, 0.01% BRIJ-35, 10 mM MgCl2, 1 mM EGTA). Peptide/Kinase Mixtures are diluted to a 2× working concentration in the appropriate Kinase Buffers as described below. (i) Peptide/Kinase Mixtures for Measurement of EGFR (ErbB1): The 2×EGFR (ErbB1)/[…] mixture is prepared in 50 mM HEPES pH 7.5, 0.01% BRIJ-35, 10 mM MgCl2, 4 mM MnCl2, 1 mM EGTA, 2 mM DTT. The final 10 μL Kinase Reaction consists of 1.1-5.25 ng EGFR (ErbB1) and 2 μM […] in 50 mM HEPES pH 7.5, 0.01% BRIJ-35, 10 mM MgCl2, 2 mM MnCl2, 1 mM EGTA, 1 mM DTT. After the 1 hour Kinase Reaction incubation, 5 μL of a 1:64 dilution of Development Reagent B is added. Reaction starts by 30-second shaking of mixture consisting of 2.5 μL 4× test compound, 5 μL 2× kinase reaction mixture and 2.5 μL 4×ATP Solution on Bar-coded Corning, low volume NBS, black 384-well plate (Corning Cat. #3676). […] Finally fluorescence is read by plate reader. […]

H1975 tumor xenograft = experiment: Inhibition of tumor growth in H1975 xenograft model; type: in vivo, BALB/c female nude mice; settings: Table 7, 60 mg/kg, oral, QD × 14; for Tumor Volume Pre-treatment: baseline
Method: H1975 cells were implanted in BALB/c female nude mice and grown as tumor xenografts. When tumors achieved 120-200 mm^3, mice were assigned into treatment and control groups using randomized block design based upon their tumor volumes. Each group contained 6 tumor-bearing mice. Tumors were measured twice weekly in two dimensions using a caliper, and the tumor volume was calculated from two-dimensional measurements using the equation V=0.5×a×b^2 where a and b are the long and short diameters of the tumor, respectively. Relative tumor volume (RTV) was defined as TVt/TVi, the ratio of the volume on a given day (TVt) and the volume at the start of treatment (TVi). Relative tumor growth rate (T/C) was defined as RTVT/RTVC, the ratio of relative tumor volume of treatment group (RTVT) and relative tumor volume of control group (RTVC) on a given day. Inhibition of tumor growth in a H1975 tumor xenograft model by some compounds is shown below in Table 6 and Table 7.

IC50 (H1975 cells) [µM]	% inhibition EGFR L858R/T790M (Compound at 0.0137 μM) (EGFR (ErbB1) T790M L858R)	% inhibition EGFR (Compound at 0.041 μM) (EGFR (ErbB1))	Structure (SMILES)	Tumor Volume Post-treatment (H1975 tumor xenograft) [mm^3]	Tumor Volume Pre-treatment (H1975 tumor xenograft) [mm^3]	inhibition at 0.0137 µM (EGFR (ErbB1) T790M L858R) [%]
0.1 to 0.5	+ (less than 50% inhibition)	+ (less than 50% inhibition)	C=CC(=O)Nc1cccc(-c2cccc3cnc(Nc4ccc(N5CCN(CC(N)=O)CC5)cc4F)nc23)c1 [Example C154]			
			C=CC(=O)Nc1cccc(-c2cccc3cnc(Nc4ccc(N5CCN(C)CC5)c(F)c4F)nc23)c1 [Example C156, N-(3-(2-((2,3-difluoro-4-(4-methylpiperazin-1-yl)phenyl)amino)quinazolin-8-yl)phenyl)acrylamide]	594	232	
			C=CC(=O)Nc1cccc(-c2cccc3cnc(Nc4ccc(N5CCN(CCO)CC5)cc4F)nc23)c1 [Example C147, N-(3-(2-((2-fluoro-4-(4-(2-hydroxyethyl)piperazin-1-yl)phenyl)amino)quinazolin-8-yl)phenyl)acrylamide]	898	240	> 50
0.1 to 0.5	+ (less than 50% inhibition)	+ (less than 50% inhibition)	C=CC(=O)Nc1cccc(-c2cccc3cnc(Nc4ccc(N5CCN(CC(N)=O)CC5)c(F)c4)nc23)c1 [Example C164]			
			C=CC(=O)Nc1cccc(-c2cccc3cnc(Nc4ccc(N5CCN(CCO)CC5)c(F)c4F)nc23)c1 [Example C151, N-(3-(2-((2,3-difluoro-4-(4-(2-hydroxyethyl)piperazin-1-yl)phenyl)amino)quinazolin-8-yl)phenyl)acrylamide]	462	229	> 50
